Source: publication PMC5218480 (PLoS ONE, 2017)

System: MV-4-11 cells
Experiment: Gene expression microarray analysis (Affymetrix PrimeView) and GSEA
Assay type: cell-based, human
Parameters: RFU PODN (11730768_x_at) / Fold change /veh PODN (11730768_x_at) / RFU LINC00158 (11744669_a_at) / Fold change /veh LINC00158 (11744669_a_at) / RFU DUSP10 (11751237_a_at) / Fold change /veh DUSP10 (11751237_a_at) / RFU ID3 (11757404_x_at) / Fold change /veh ID3 (11757404_x_at) / RFU PLEKHG5 (11737974_s_at) / Fold change /veh PLEKHG5 (11737974_s_at) / RFU LRRC4B (11730491_at) / Fold change /veh LRRC4B (11730491_at) / RFU GIMAP4 (11747438_a_at) / Fold change /veh GIMAP4 (11747438_a_at) / RFU KRT8 (11758183_x_at) / Fold change /veh KRT8 (11758183_x_at) / RFU CNN1 (11734310_a_at) / Fold change /veh CNN1 (11734310_a_at) / RFU VPS37D (11726825_at) / Fold change /veh VPS37D (11726825_at) / RFU C10orf10 (11716522_x_at) / Fold change /veh C10orf10 (11716522_x_at) / RFU KIR2DL2 /// KIR2DL4 /// KIR2DL5A /// KIR2DL5B /// KIR2DS1 /// KIR2DS2 /// KIR2DS3 /// KIR2DS4 /// KIR3DL3 /// KIR3DL3 /// KIR3DS1 (11738374_at) / Fold change /veh KIR2DL2 /// KIR2DL4 /// KIR2DL5A /// KIR2DL5B /// KIR2DS1 /// KIR2DS2 /// KIR2DS3 /// KIR2DS4 /// KIR3DL3 /// KIR3DL3 /// KIR3DS1 (11738374_at) / RFU C1QL1 (11718748_at) / Fold change /veh C1QL1 (11718748_at) / RFU TMPRSS4 (11747572_a_at) / Fold change /veh TMPRSS4 (11747572_a_at) / RFU HAMP (11756126_x_at) / Fold change /veh HAMP (11756126_x_at) / RFU RNFT2 (11725882_a_at) / Fold change /veh RNFT2 (11725882_a_at) / RFU NR4A2 (11747474_a_at) / Fold change /veh NR4A2 (11747474_a_at) / RFU ABCC12 (11746883_a_at) / Fold change /veh ABCC12 (11746883_a_at) / RFU TMEM136 (11760407_x_at) / Fold change /veh TMEM136 (11760407_x_at) / RFU CLDN22 /// WWC2 (11732394_at) / Fold change /veh CLDN22 /// WWC2 (11732394_at) / RFU HLA-DPB1 (11760878_x_at) / Fold change /veh HLA-DPB1 (11760878_x_at) / RFU SPINT1 (11716480_a_at) / Fold change /veh SPINT1 (11716480_a_at) / RFU GAP43 (11754022_s_at) / Fold change /veh GAP43 (11754022_s_at) / RFU A4GNT (11735810_at) / Fold change /veh A4GNT (11735810_at) / RFU PRB3 (11715151_x_at) / Fold change /veh PRB3 (11715151_x_at) / RFU TUBB4B (11761932_at) / Fold change /veh TUBB4B (11761932_at) / RFU CAPN14 (11732068_a_at) / Fold change /veh CAPN14 (11732068_a_at) / RFU TMCC2 (11721928_a_at) / Fold change /veh TMCC2 (11721928_a_at) / RFU IRGQ (11745062_a_at) / Fold change /veh IRGQ (11745062_a_at) / RFU FAM174B (11720279_a_at) / Fold change /veh FAM174B (11720279_a_at) / RFU TMPRSS4 (11748680_a_at) / Fold change /veh TMPRSS4 (11748680_a_at) / RFU FAM212B (11763350_a_at) / Fold change /veh FAM212B (11763350_a_at) / RFU PLEKHG5 (11743358_a_at) / Fold change /veh PLEKHG5 (11743358_a_at) / RFU ZSCAN30 (11745921_a_at) / Fold change /veh ZSCAN30 (11745921_a_at) / RFU CMKLR1 (11741424_a_at) / Fold change /veh CMKLR1 (11741424_a_at) / RFU LOC101060620 /// MAPK8IP1 (11723275_at) / Fold change /veh LOC101060620 /// MAPK8IP1 (11723275_at) / RFU SPTSSB (11747773_x_at) / Fold change /veh SPTSSB (11747773_x_at) / RFU PRSS12 (11739890_at) / Fold change /veh PRSS12 (11739890_at) / RFU BIN1 (11741810_x_at) / Fold change /veh BIN1 (11741810_x_at) / RFU WNT11 (11732464_a_at) / Fold change /veh WNT11 (11732464_a_at) / RFU C10orf10 (11716521_a_at) / Fold change /veh C10orf10 (11716521_a_at) / RFU C5orf56 (11738089_at) / Fold change /veh C5orf56 (11738089_at) / RFU CYB561 (11721691_x_at) / Fold change /veh CYB561 (11721691_x_at) / RFU ANKRD19P (11752326_a_at) / Fold change /veh ANKRD19P (11752326_a_at) / RFU OR2T12 /// OR2T33 /// OR2T8 (11738714_s_at) / Fold change /veh OR2T12 /// OR2T33 /// OR2T8 (11738714_s_at) / RFU VCAN (11748164_a_at) / Fold change /veh VCAN (11748164_a_at) / RFU JSRP1 (11732532_at) / Fold change /veh JSRP1 (11732532_at) / RFU KRTAP10-11 (11738290_x_at) / Fold change /veh KRTAP10-11 (11738290_x_at) / RFU MYO3A (11730013_a_at) / Fold change /veh MYO3A (11730013_a_at) / RFU EBF3 (11725865_a_at) / Fold change /veh EBF3 (11725865_a_at) / RFU CAMK2N1 (11719241_x_at) / Fold change /veh CAMK2N1 (11719241_x_at) / RFU C5orf56 (11738088_a_at) / Fold change /veh C5orf56 (11738088_a_at) / RFU OLFML3 (11715873_a_at) / Fold change /veh OLFML3 (11715873_a_at) / RFU LOC100653217 /// NTM (11731650_a_at) / Fold change /veh LOC100653217 /// NTM (11731650_a_at) / RFU MAPK11 (11762145_a_at) / Fold change /veh MAPK11 (11762145_a_at) / RFU FIZ1 (11724087_x_at) / Fold change /veh FIZ1 (11724087_x_at) / RFU OASL (11726364_x_at) / Fold change /veh OASL (11726364_x_at) / RFU SOX15 (11748057_x_at) / Fold change /veh SOX15 (11748057_x_at) / RFU CD79A (11719716_a_at) / Fold change /veh CD79A (11719716_a_at) / RFU HIST1H1D (11736915_at) / Fold change /veh HIST1H1D (11736915_at) / RFU CASKIN2 (11723855_a_at) / Fold change /veh CASKIN2 (11723855_a_at) / RFU LOC730098 (11760151_x_at) / Fold change /veh LOC730098 (11760151_x_at) / RFU OR4N2 (11742367_at) / Fold change /veh OR4N2 (11742367_at) / RFU PRRT2 (11749266_a_at) / Fold change /veh PRRT2 (11749266_a_at) / RFU SNX32 (11753110_a_at) / Fold change /veh SNX32 (11753110_a_at) / RFU CDHR5 (11726645_a_at) / Fold change /veh CDHR5 (11726645_a_at) / RFU RCAN1 (11760418_a_at) / Fold change /veh RCAN1 (11760418_a_at) / RFU FAM167A (11723789_a_at) / Fold change /veh FAM167A (11723789_a_at) / RFU FAM26E (11764081_at) / Fold change /veh FAM26E (11764081_at) / RFU ISYNA1 (11749810_s_at) / Fold change /veh ISYNA1 (11749810_s_at) / RFU ACY1 (11761880_at) / Fold change /veh ACY1 (11761880_at) / RFU 11764098_at / Fold change /veh 11764098_at / RFU SAMD14 (11745864_x_at) / Fold change /veh SAMD14 (11745864_x_at) / RFU NPB (11741838_a_at) / Fold change /veh NPB (11741838_a_at) / RFU TMPRSS6 (11731388_a_at) / Fold change /veh TMPRSS6 (11731388_a_at) / RFU KRTAP10-2 (11738614_at) / Fold change /veh KRTAP10-2 (11738614_at) / RFU ARHGAP8 /// PRR5-ARHGAP8 (11727945_x_at) / Fold change /veh ARHGAP8 /// PRR5-ARHGAP8 (11727945_x_at) / RFU KRTAP5-7 /// NADSYN1 (11734609_at) / Fold change /veh KRTAP5-7 /// NADSYN1 (11734609_at) / RFU RASL12 (11751679_a_at) / Fold change /veh RASL12 (11751679_a_at) / RFU CDKN2B (11736163_a_at) / Fold change /veh CDKN2B (11736163_a_at) / RFU PRF1 (11729649_at) / Fold change /veh PRF1 (11729649_at) / RFU, ZNF638 /// ZNF638-IT1 / Fold change vs veh, ZNF638 /// ZNF638-IT1 / RFU, PANK3 / Fold change vs veh, PANK3 / RFU, SH3YL1 / Fold change vs veh, SH3YL1 / RFU, ZEB2 / Fold change vs veh, ZEB2 / RFU, NRIP1 / Fold change vs veh, NRIP1 / RFU, PTTG1IP / Fold change vs veh, PTTG1IP / RFU, CAPN2 / Fold change vs veh, CAPN2 / RFU, MED14 / Fold change vs veh, MED14 / RFU, SNORA58 / Fold change vs veh, SNORA58 / RFU, C1orf63 / Fold change vs veh, C1orf63 / RFU, LRRFIP1 / Fold change vs veh, LRRFIP1 / RFU, NDUFAF7 / Fold change vs veh, NDUFAF7 / RFU, SLC12A2 / Fold change vs veh, SLC12A2 / RFU, IBTK / Fold change vs veh, IBTK / RFU, ESF1 / Fold change vs veh, ESF1 / Fold change vs veh, TMEM50B / RFU, TAOK1 / Fold change vs veh, TAOK1 / RFU, ACBD3 / Fold change vs veh, ACBD3 / RFU, TMA16 / Fold change vs veh, TMA16 / RFU, RWDD3 / Fold change vs veh, RWDD3 / RFU, BCAT1 / Fold change vs veh, BCAT1 / RFU, EDEM3 / Fold change vs veh, EDEM3 / RFU, TMEM33 / Fold change vs veh, TMEM33 / RFU, WDR75 / Fold change vs veh, WDR75 / RFU, AHCTF1 / Fold change vs veh, AHCTF1 / RFU, TFRC / Fold change vs veh, TFRC / RFU, ZDHHC17 / Fold change vs veh, ZDHHC17 / RFU, NOM1 / Fold change vs veh, NOM1 / RFU, ARL8B / Fold change vs veh, ARL8B / RFU, ZBTB11 / Fold change vs veh, ZBTB11 / RFU, TAMM41 / Fold change vs veh, TAMM41 / RFU, KIAA1704 /// LOC100996395 / Fold change vs veh, KIAA1704 /// LOC100996395 / RFU, ING1 / Fold change vs veh, ING1 / RFU, TRMT61B / Fold change vs veh, TRMT61B / RFU, FUBP3 / Fold change vs veh, FUBP3 / RFU, TP53 / Fold change vs veh, TP53 / RFU, TNKS2 / Fold change vs veh, TNKS2 / RFU, ZFP14 / Fold change vs veh, ZFP14 / RFU, ACTR2 / Fold change vs veh, ACTR2 / RFU, PPP3R1 / Fold change vs veh, PPP3R1 / RFU, PIK3R1 / Fold change vs veh, PIK3R1 / RFU, HNRNPA1 / Fold change vs veh, HNRNPA1 / RFU, RNF170 / Fold change vs veh, RNF170 / RFU, ZNF28 / Fold change vs veh, ZNF28 / RFU, RNGTT / Fold change vs veh, RNGTT / RFU, OGT / Fold change vs veh, OGT / RFU, BRD1 / Fold change vs veh, BRD1 / RFU, MARS / Fold change vs veh, MARS / RFU, ZNF655 / Fold change vs veh, ZNF655 / RFU, FAHD1 / Fold change vs veh, FAHD1 / RFU, BDP1 / Fold change vs veh, BDP1 / RFU, LRRCC1 / Fold change vs veh, LRRCC1 / RFU, ARID1A / Fold change vs veh, ARID1A / RFU, ZNF146 / Fold change vs veh, ZNF146 / RFU, ZNF330 / Fold change vs veh, ZNF330 / RFU, GPN3 / Fold change vs veh, GPN3 / RFU, C9orf123 / Fold change vs veh, C9orf123 / RFU, N4BP2L2 / Fold change vs veh, N4BP2L2 / RFU, ARFIP1 / Fold change vs veh, ARFIP1 / RFU, FAM179B / Fold change vs veh, FAM179B / RFU, BCL10 / Fold change vs veh, BCL10 / RFU, UHRF1BP1L / Fold change vs veh, UHRF1BP1L / RFU, BET1 / Fold change vs veh, BET1 / RFU, CNOT2 / Fold change vs veh, CNOT2 / RFU, ZNF268 / Fold change vs veh, ZNF268 / Fold change vs veh, ZNF507 / RFU, DGCR2 / Fold change vs veh, DGCR2 / RFU, WDSUB1 / Fold change vs veh, WDSUB1 / Fold change vs veh, HSP90B1 /// MIR3652 / RFU, ADSS / Fold change vs veh, ADSS / RFU, GK / Fold change vs veh, GK / RFU, ZNF148 / Fold change vs veh, ZNF148 / RFU, TAF9 / Fold change vs veh, TAF9 / RFU, SLC1A5 / Fold change vs veh, SLC1A5 / RFU, SLMO2 / Fold change vs veh, SLMO2 / RFU, ABCC4 / Fold change vs veh, ABCC4 / RFU, LOC101060439 /// RAP1B / Fold change vs veh, LOC101060439 /// RAP1B / RFU, RFX7 / Fold change vs veh, RFX7 / RFU, GTPBP10 / Fold change vs veh, GTPBP10 / RFU, CNEP1R1 / Fold change vs veh, CNEP1R1 / RFU, BIVM-ERCC5 /// ERCC5 / Fold change vs veh, BIVM-ERCC5 /// ERCC5 / RFU, ILF3 / Fold change vs veh, ILF3 / RFU 11762660_at / Fold change /veh 11762660_at / RFU VCAN (11757783_s_at) / Fold change /veh VCAN (11757783_s_at) / RFU DDX43 (11728927_at) / Fold change /veh DDX43 (11728927_at) / RFU KRT8 (11758188_x_at) / Fold change /veh KRT8 (11758188_x_at) / RFU NKD1 (11759106_at) / Fold change /veh NKD1 (11759106_at) / RFU SRD5A1 (11742802_a_at) / Fold change /veh SRD5A1 (11742802_a_at) / RFU TPSAB1 /// TPSB2 (11721975_s_at) / Fold change /veh TPSAB1 /// TPSB2 (11721975_s_at) / RFU GSTM3 (11746129_a_at) / Fold change /veh GSTM3 (11746129_a_at) / RFU IL23R (11737362_x_at) / Fold change /veh IL23R (11737362_x_at) / RFU TMEM51 (11727254_a_at) / Fold change /veh TMEM51 (11727254_a_at) / RFU PIWIL2 (11732686_x_at) / Fold change /veh PIWIL2 (11732686_x_at) / RFU ORM1 (11744905_x_at) / Fold change /veh ORM1 (11744905_x_at) / RFU CCDC152 (11743942_at) / Fold change /veh CCDC152 (11743942_at) / RFU ECM1 (11717891_a_at) / Fold change /veh ECM1 (11717891_a_at) / RFU IL23R (11748794_a_at) / Fold change /veh IL23R (11748794_a_at) / RFU TNFAIP8L3 (11732012_x_at) / Fold change /veh TNFAIP8L3 (11732012_x_at) / RFU MBOAT4 (11741988_at) / Fold change /veh MBOAT4 (11741988_at) / RFU 11764193_at / Fold change /veh 11764193_at / RFU TMEM53 (11763286_at) / Fold change /veh TMEM53 (11763286_at) / RFU MAGEB2 (11727129_at) / Fold change /veh MAGEB2 (11727129_at) / RFU TMEM200A (11744735_a_at) / Fold change /veh TMEM200A (11744735_a_at) / RFU CCDC152 (11751479_a_at) / Fold change /veh CCDC152 (11751479_a_at) / RFU FAM211A (11726209_a_at) / Fold change /veh FAM211A (11726209_a_at) / RFU RGS16 (11746705_a_at) / Fold change /veh RGS16 (11746705_a_at) / RFU VCAN (11755009_s_at) / Fold change /veh VCAN (11755009_s_at) / RFU RHOB (11743442_s_at) / Fold change /veh RHOB (11743442_s_at) / RFU RGS16 (11720943_a_at) / Fold change /veh RGS16 (11720943_a_at) / RFU RGS16 (11720944_at) / Fold change /veh RGS16 (11720944_at) / RFU, VPS4B / Fold change vs veh, VPS4B / RFU, CREB1 / Fold change vs veh, CREB1 / RFU, DNAJC13 / Fold change vs veh, DNAJC13 / RFU, GNAQ / Fold change vs veh, GNAQ / RFU, CDK5R1 / Fold change vs veh, CDK5R1 / RFU, ZRANB3 / Fold change vs veh, ZRANB3 / RFU, CUL4A / Fold change vs veh, CUL4A / RFU, CCNY / Fold change vs veh, CCNY / RFU, UFL1 / Fold change vs veh, UFL1 / RFU, COG3 / Fold change vs veh, COG3 / RFU, DIAPH2 / Fold change vs veh, DIAPH2 / RFU, SKA2 / Fold change vs veh, SKA2 / RFU, AFF3 / Fold change vs veh, AFF3 / RFU, LMF1 / Fold change vs veh, LMF1 / RFU, IPO11 / Fold change vs veh, IPO11 / RFU, DFFB / Fold change vs veh, DFFB / RFU, FOXP1 / Fold change vs veh, FOXP1 / RFU, CARD8 / Fold change vs veh, CARD8 / RFU, STRN3 / Fold change vs veh, STRN3 / RFU, ADK / Fold change vs veh, ADK / RFU, RASSF2 / Fold change vs veh, RASSF2 / RFU, WIPF1 / Fold change vs veh, WIPF1 / RFU, LARP1B / Fold change vs veh, LARP1B / RFU, RASA1 / Fold change vs veh, RASA1 / RFU, RB1 / Fold change vs veh, RB1 / RFU, PPFIA1 / Fold change vs veh, PPFIA1 / RFU, MAT2A / Fold change vs veh, MAT2A / RFU, CCT5 / Fold change vs veh, CCT5 / RFU, WDR92 / Fold change vs veh, WDR92 / RFU, CUX1 / Fold change vs veh, CUX1 / RFU, TTC7A / Fold change vs veh, TTC7A / RFU, TMEM135 / Fold change vs veh, TMEM135 / RFU, DEPTOR / Fold change vs veh, DEPTOR / RFU, CPM / Fold change vs veh, CPM / RFU, DNAJB6 / Fold change vs veh, DNAJB6 / RFU, CACNA2D3 / Fold change vs veh, CACNA2D3 / RFU, DTX4 / Fold change vs veh, DTX4 / RFU, TFCP2 / Fold change vs veh, TFCP2 / RFU, GMCL1 /// GMCL1P1 / Fold change vs veh, GMCL1 /// GMCL1P1 / RFU, AEBP2 / Fold change vs veh, AEBP2 / RFU, SNHG1 /// SNORD22 /// SNORD25 /// SNORD26 /// SNORD27 /// SNORD28 /// SNORD29 /// SNORD31 / Fold change vs veh, SNHG1 /// SNORD22 /// SNORD25 /// SNORD26 /// SNORD27 /// SNORD28 /// SNORD29 /// SNORD31 / Fold change (Aza/veh), C12orf56 (ProbeSet 11735607_a_at) / Fold change (ACY-1035/veh), C12orf56 (ProbeSet 11735607_a_at) / Fold change (Aza/veh), FGFR1OP (ProbeSet 11751329_s_at) / Fold change (ACY-1035/veh), FGFR1OP (ProbeSet 11751329_s_at) / Fold change (Aza/veh), VPS36 (ProbeSet 11739960_a_at) / Fold change (ACY-1035/veh), VPS36 (ProbeSet 11739960_a_at) / RFU SYPL1 (11715823_x_at) / Fold change /veh SYPL1 (11715823_x_at) / RFU IGFBP7 (11715501_s_at) / Fold change /veh IGFBP7 (11715501_s_at) / RFU REEP3 (11722064_at) / Fold change /veh REEP3 (11722064_at) / RFU IGLL1 (11728026_x_at) / Fold change /veh IGLL1 (11728026_x_at): dose or concentration left out as unconfirmed
Settings: ProbeSet 11741070_a_at; LIST B

`Nc1ncn([C@@H]2O[C@H](CO)[C@@H](O)[C@H]2O)c(=O)n1` [azacitidine] was tested, and the “RFU, ZNF146” value was 2051.58 RFU.
